Measured values: US20250170248A1, “SMARCA DEGRADERS AND USES THEREOF” (Kymera Therapeutics, Inc., priority 2021, published 2025)

What was measured:
Type in all cases: cell-based
[1] = target: T1, SMARCA2 (Homo sapiens, UniProt P51531); test: MSD SMARCA2 degradation in A549 cell line; conditions: 24 h; for Dmax: A549, A549 cells; for DC50: A549 cells, read-out: SMARCA2 MSD A549 degradation 24 h: Average external-Abs DC50
Outline: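 A549 cells treated 24 h with compound, 3-fold series from 1000 nM. Lysates captured on MSD plates and SMARCA2 quantified with anti-SMARCA2 and SULFO-TAG secondary antibodies (electrochemiluminescence). DC50 and Dmax (% degradation at 24 h) reported as letter bins.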

[2] = target: T2, SMARCA4 (Homo sapiens, UniProt P51532); test: SMARCA4 Western blot degradation in MV4-11 cells; conditions: 24 h; for Dmax: MV4-11, MV4-11 cells, read-out: SMARCA4 MSD MV411 degradation 24 h: average Dmax %; for DC50: MV4-11 cells, read-out: SMARCA4 MSD MV411 degradation 24 h: Mean external-Abs DC50
T2 construct: SMARCA2/SMARCA4 protein degradation selectivity in MV4-11 cells; endogenous in cells; host or cells: MV4-11
Outline: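 MV4-11 cells (4×10^6/well) treated with compound for 24 h, lysed in RIPA with protease/phosphatase inhibitors, and SMARCA2, SMARCA4 and beta-actin detected by Western blot with LI-COR readout. Values reported as letter-coded DC50, 24 h Dmax % and SMARCA2/4 selectivity fold.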

[3] = target: T1, SMARCA2; test: SMARCA2 Western blot degradation in MV4-11 cells; design: SMARCA2/SMARCA4 protein degradation selectivity in MV4-11 cells; endogenous in cells; host or cells: MV4-11; conditions: for Dmax: MV4-11, MV4-11 cells, read-out: SMARCA2 MSD MV411 degradation 24 h: average Dmax %; for Dmax / DC50: 24 h; for DC50 / Selectivity in MV411: MV4-11 cells; for DC50: read-out: SMARCA2 MSD MV411 degradation 24 h: Mean external-Abs DC50; for Selectivity in MV411: SMARCA2/4 selectivity

T1 sequence (P51531 whole entry): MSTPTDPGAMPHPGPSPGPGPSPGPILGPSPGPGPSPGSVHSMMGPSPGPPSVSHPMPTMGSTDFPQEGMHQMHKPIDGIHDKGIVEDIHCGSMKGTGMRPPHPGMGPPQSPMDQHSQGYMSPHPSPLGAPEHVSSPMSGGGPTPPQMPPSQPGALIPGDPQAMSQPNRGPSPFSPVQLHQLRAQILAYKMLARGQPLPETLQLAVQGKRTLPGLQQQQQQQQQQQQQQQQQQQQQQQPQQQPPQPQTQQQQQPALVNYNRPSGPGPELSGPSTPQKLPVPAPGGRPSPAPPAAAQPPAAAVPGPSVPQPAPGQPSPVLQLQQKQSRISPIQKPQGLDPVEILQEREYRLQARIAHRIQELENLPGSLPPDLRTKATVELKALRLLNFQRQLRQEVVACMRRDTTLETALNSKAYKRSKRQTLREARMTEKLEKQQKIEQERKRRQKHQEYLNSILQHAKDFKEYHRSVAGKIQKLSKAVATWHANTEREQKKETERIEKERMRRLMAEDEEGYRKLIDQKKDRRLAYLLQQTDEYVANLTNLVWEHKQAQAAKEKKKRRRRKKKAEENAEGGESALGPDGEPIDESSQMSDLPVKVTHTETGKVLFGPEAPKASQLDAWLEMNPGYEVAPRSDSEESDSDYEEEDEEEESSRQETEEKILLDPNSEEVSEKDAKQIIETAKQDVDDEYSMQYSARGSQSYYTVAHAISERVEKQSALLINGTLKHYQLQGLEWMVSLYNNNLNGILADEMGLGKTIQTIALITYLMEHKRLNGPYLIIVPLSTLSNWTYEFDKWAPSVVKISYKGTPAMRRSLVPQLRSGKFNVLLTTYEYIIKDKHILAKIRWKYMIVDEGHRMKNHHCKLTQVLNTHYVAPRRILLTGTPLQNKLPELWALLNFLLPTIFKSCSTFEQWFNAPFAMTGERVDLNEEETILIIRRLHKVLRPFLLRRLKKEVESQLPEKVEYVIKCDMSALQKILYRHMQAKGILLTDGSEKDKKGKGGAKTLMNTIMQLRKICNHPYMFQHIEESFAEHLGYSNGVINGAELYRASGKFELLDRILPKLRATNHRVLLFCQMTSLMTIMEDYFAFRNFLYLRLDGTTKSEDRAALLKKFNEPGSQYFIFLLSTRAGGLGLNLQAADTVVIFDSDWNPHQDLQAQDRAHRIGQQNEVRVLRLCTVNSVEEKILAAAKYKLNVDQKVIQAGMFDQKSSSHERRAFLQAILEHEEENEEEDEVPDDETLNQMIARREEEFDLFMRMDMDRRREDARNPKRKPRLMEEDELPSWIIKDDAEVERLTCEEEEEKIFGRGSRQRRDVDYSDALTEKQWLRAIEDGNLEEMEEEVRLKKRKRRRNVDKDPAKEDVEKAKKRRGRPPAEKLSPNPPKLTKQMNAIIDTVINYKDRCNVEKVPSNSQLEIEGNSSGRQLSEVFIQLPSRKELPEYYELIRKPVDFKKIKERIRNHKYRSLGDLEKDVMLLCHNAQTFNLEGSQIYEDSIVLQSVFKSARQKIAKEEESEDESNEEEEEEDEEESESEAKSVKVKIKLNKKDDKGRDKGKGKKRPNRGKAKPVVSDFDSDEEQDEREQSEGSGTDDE
T2 sequence (P51532 whole entry): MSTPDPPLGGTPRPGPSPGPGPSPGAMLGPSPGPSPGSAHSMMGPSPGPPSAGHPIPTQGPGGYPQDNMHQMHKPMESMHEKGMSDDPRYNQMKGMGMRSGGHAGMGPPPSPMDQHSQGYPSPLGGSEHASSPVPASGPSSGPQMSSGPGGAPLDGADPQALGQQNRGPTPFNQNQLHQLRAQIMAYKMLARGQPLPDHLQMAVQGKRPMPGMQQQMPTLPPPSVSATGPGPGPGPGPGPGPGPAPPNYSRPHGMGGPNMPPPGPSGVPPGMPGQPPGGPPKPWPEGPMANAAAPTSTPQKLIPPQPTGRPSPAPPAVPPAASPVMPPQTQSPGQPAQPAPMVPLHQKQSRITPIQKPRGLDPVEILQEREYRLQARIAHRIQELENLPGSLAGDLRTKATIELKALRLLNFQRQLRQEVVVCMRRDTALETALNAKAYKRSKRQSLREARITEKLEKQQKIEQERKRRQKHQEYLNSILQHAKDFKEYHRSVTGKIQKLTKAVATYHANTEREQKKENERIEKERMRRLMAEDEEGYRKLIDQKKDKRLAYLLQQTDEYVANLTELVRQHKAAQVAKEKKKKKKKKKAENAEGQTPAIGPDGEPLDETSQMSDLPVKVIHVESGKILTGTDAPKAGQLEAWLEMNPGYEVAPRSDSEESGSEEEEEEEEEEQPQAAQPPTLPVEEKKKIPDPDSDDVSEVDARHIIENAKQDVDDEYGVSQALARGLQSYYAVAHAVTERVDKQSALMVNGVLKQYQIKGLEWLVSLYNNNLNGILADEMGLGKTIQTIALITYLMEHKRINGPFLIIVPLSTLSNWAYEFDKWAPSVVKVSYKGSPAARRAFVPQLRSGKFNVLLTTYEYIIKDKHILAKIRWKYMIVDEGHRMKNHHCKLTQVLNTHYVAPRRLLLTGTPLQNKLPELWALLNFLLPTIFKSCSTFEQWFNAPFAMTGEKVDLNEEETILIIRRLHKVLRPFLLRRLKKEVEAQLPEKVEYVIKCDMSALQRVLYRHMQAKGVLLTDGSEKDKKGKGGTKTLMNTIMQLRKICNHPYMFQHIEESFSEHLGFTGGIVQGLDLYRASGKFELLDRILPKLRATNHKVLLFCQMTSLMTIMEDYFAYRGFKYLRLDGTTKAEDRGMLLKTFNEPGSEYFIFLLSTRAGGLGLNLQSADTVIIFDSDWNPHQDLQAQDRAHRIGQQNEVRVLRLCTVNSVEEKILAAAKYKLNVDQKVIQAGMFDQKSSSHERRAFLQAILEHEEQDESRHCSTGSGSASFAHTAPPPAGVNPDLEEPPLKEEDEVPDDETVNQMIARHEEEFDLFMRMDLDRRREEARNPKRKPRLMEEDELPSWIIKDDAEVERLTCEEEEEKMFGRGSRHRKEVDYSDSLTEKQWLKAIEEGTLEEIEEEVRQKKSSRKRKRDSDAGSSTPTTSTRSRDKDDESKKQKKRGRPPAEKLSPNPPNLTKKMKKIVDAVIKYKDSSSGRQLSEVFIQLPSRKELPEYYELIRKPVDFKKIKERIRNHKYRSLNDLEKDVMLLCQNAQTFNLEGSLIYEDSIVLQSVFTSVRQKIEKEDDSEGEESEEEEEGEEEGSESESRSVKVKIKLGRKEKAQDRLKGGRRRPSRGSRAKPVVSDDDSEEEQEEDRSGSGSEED

Row | Dmax [1] | DC50 [1] | Dmax [2] | DC50 [2] | Dmax [3] | DC50 [3] | Selectivity in MV411 [3] | SMILES
1 | > 90% | 0.01 to 0.05 µM | 50 to 70% | > 0.1 µM | 70 to 90% | 0.001 to 0.01 µM | B (B (>100-500 fold)) | C#Cc1ccc(CNC(=O)[C@@H]2C[C@@H](O)CN2C(=O)[C@@H](NC(=O)N2CC3(CC(N4CCC(c5cnc(N6CCc7[nH]c8nnc(-c9ccccc9O)cc8c7[C@H]6C)nc5)CC4)C3)C2)C(C)(C)C)cc1OC [I-319]
2 | > 90% | < 0.01 µM | > 90% | 0.01 to 0.1 µM | > 90% | 0.001 to 0.01 µM | C (C (10-100 fold)) | C#Cc1ccc(CNC(=O)[C@@H]2C[C@@H](O)CN2C(=O)[C@@H](NC(=O)C2CC3(C2)CN(c2cnc(N4CCC(N5CCN6c7cc(-c8ccccc8O)nnc7NC[C@H]6C5)CC4)cn2)C3)C(C)(C)C)cc1 [I-320]
3 | > 90% | 0.01 to 0.05 µM | < 50% | > 0.1 µM | 70 to 90% | 0.001 to 0.01 µM | A (A (>500 fold)) | C#Cc1ccc([C@H](C)NC(=O)[C@@H]2C[C@@H](O)CN2C(=O)[C@@H](NC(=O)N2CC3(CC(N4CCC(c5cnc(N6CCc7[nH]c8nnc(-c9ccccc9O)cc8c7[C@H]6CO)nc5)CC4)C3)C2)C(C)(C)C)cc1 [I-321]
4 | > 90% | 0.01 to 0.05 µM | 50 to 70% | > 0.1 µM | 70 to 90% | 0.001 to 0.01 µM | C (C (10-100 fold)) | C#Cc1ccc(CNC(=O)[C@@H]2C[C@@H](O)CN2C(=O)[C@@H](NC(=O)N2CC3(CC(N4CCC(c5cnc(N6CCc7[nH]c8nnc(-c9ccccc9O)cc8c7[C@H]6C)s5)CC4)C3)C2)C(C)(C)C)cc1 [I-323]
5 | < 50% | > 0.1 µM | < 50% | > 0.1 µM | < 50% | > 0.1 µM | C (C (10-100 fold)) | C#Cc1ccc([C@H](C)NC(=O)[C@@H]2C[C@@H](O)CN2C(=O)C(c2cc(N3CCC(CN4CCC(N5CCC(N6CCN7c8cc(-c9ccccc9O)nnc8NC[C@H]7C6)CC5)CC4)CC3)no2)C(C)C)c(Cl)c1 (stereo partly shown) [I-324]
6 | > 90% | 0.01 to 0.05 µM | > 90% | 0.01 to 0.1 µM | > 90% | 0.001 to 0.01 µM | C (C (10-100 fold)) | C#Cc1ccc(CNC(=O)[C@@H]2C[C@@H](O)CN2C(=O)C(c2cc(N3CCC(CN4CCC(N5CCC(N6CCN7c8cc(-c9ccccc9O)nnc8NC[C@H]7C6)CC5)CC4)CC3)no2)C(C)C)c(Cl)c1 (stereo partly shown) [I-325]
7 | > 90% | 0.05 to 0.1 µM | 70 to 90% | > 0.1 µM | 70 to 90% | 0.01 to 0.1 µM | C (C (10-100 fold)) | C#Cc1ccc([C@@H](C)NC(=O)[C@@H]2C[C@@H](O)CN2C(=O)C(c2cc(N3CCC(CN4CCC(N5CCC(N6CCN7c8cc(-c9ccccc9O)nnc8NC[C@H]7C6)CC5)CC4)CC3)no2)C(C)C)c(Cl)c1 (stereo partly shown) [I-327]
8 | – | > 0.1 µM | – | > 0.1 µM | – | – | D (D (<10 fold)) | C#Cc1cc(Cl)c(CNC(=O)[C@@H]2C[C@@H](O)CN2C(=O)[C@@H](NC(=O)[C@H]2CC3(C2)C[C@H](N2CCC(N4CCC(N5CCN6c7cc(-c8ccccc8O)nnc7NC[C@H]6C5)CC4)CC2)C3)C(C)(C)C)c(OC)c1 (stereo partly shown) [I-329]
9 | – | > 0.1 µM | – | > 0.1 µM | – | – | C (C (10-100 fold)) | C#Cc1cnc(CNC(=O)[C@@H]2C[C@@H](O)CN2C(=O)[C@@H](NC(=O)[C@H]2CC3(C2)C[C@H](N2CCC(N4CCC(N5CCN6c7cc(-c8ccccc8O)nnc7NC[C@H]6C5)CC4)CC2)C3)C(C)(C)C)c(OC)c1 (stereo partly shown) [I-331]
10 | > 90% | < 0.01 µM | > 90% | 0.001 to 0.01 µM | > 90% | < 0.001 µM | C (C (10-100 fold)) | C#Cc1ccc([C@H](C)NC(=O)[C@@H]2C[C@@H](O)CN2C(=O)C(c2cc(N3CC4(CC(N5CCC(N6CCC(N7CCN8c9cc(-c%10ccccc%10O)nnc9NC[C@H]8C7)CC6)CC5)C4)C3)no2)C(C)C)cc1 (stereo partly shown) [I-332]
11 | 70 to 90% | > 0.1 µM | 70 to 90% | > 0.1 µM | 50 to 70% | 0.01 to 0.1 µM | D (D (<10 fold)) | C#Cc1ccc(CNC(=O)[C@@H]2C[C@@H](O)CN2C(=O)[C@@H](NC(=O)N2CC3(CC(N4CCC(c5cnc(N6CCc7[nH]c8nnc(-c9ccccc9O)cc8c7[C@@H]6C)s5)CC4)C3)C2)C(C)(C)C)cc1 [I-335]
12 | < 50% | > 0.1 µM | < 50% | > 0.1 µM | < 50% | > 0.1 µM | C (C (10-100 fold)) | C#Cc1ccc(CNC(=O)[C@@H]2C[C@@H](O)CN2C(=O)[C@H](NC(=O)N2CC3(CC(N4CCC(c5cnc(N6CCc7[nH]c8nnc(-c9ccccc9O)cc8c7[C@H]6C)nc5)CC4)C3)C2)C(C)(C)CCN2CCNCC2)cc1 [I-339]
13 | 50 to 70% | > 0.1 µM | < 50% | > 0.1 µM | < 50% | > 0.1 µM | C (C (10-100 fold)) | C#Cc1ccc(CNC(=O)[C@@H]2C[C@@H](O)CN2C(=O)[C@@H](NC(=O)N2CC3(CC(N4CCC(c5cnc(N6CCc7[nH]c8nnc(-c9ccccc9O)cc8c7[C@H]6C)nc5)CC4)C3)C2)C(C)(C)CCN2CCNCC2)cc1 [I-340]
14 | < 50% | > 0.1 µM | < 50% | > 0.1 µM | < 50% | > 0.1 µM | C (C (10-100 fold)) | C#Cc1ccc(CNC(=O)[C@@H]2C[C@@H](O)CN2C(=O)[C@H](NC(=O)N2CC3(CC(N4CCC(c5cnc(N6CCc7[nH]c8nnc(-c9ccccc9O)cc8c7[C@H]6C)nc5)CC4)C3)C2)C(C)(C)CCN2CCN[C@@H](C(=O)O)C2)cc1 [I-341]
15 | < 50% | > 0.1 µM | < 50% | > 0.1 µM | < 50% | > 0.1 µM | C (C (10-100 fold)) | C#Cc1ccc(CNC(=O)[C@@H]2C[C@@H](O)CN2C(=O)[C@@H](NC(=O)N2CC3(CC(N4CCC(c5cnc(N6CCc7[nH]c8nnc(-c9ccccc9O)cc8c7[C@H]6C)nc5)CC4)C3)C2)C(C)(C)CCN2CCN[C@@H](C(=O)O)C2)cc1 [I-342]
16 | < 50% | > 0.1 µM | < 50% | > 0.1 µM | < 50% | > 0.1 µM | C (C (10-100 fold)) | C#Cc1ccc(CNC(=O)[C@@H]2C[C@@H](O)CN2C(=O)[C@H](NC(=O)N2CC3(CC(N4CCC(c5cnc(N6CCc7[nH]c8nnc(-c9ccccc9O)cc8c7[C@H]6C)nc5)CC4)C3)C2)C(C)(C)CCN2CCN[C@H](C(=O)O)C2)cc1 [I-343]
17 | < 50% | > 0.1 µM | < 50% | > 0.1 µM | < 50% | > 0.1 µM | C (C (10-100 fold)) | C#Cc1ccc(CNC(=O)[C@@H]2C[C@@H](O)CN2C(=O)[C@@H](NC(=O)N2CC3(CC(N4CCC(c5cnc(N6CCc7[nH]c8nnc(-c9ccccc9O)cc8c7[C@H]6C)nc5)CC4)C3)C2)C(C)(C)CCN2CCN[C@H](C(=O)O)C2)cc1 [I-344]
18 | > 90% | 0.01 to 0.05 µM | 70 to 90% | > 0.1 µM | 70 to 90% | 0.001 to 0.01 µM | C (C (10-100 fold)) | C#Cc1ccc([C@H](C)NC(=O)[C@@H]2C[C@@H](O)CN2C(=O)[C@@H](NC(=O)[C@H]2CC3(C2)C[C@H](c2cnc(N4CCC(N5CCN6c7cc(-c8ccccc8O)nnc7NC[C@H]6C5)CC4)nc2)C3)C(C)(C)C)cc1 (stereo partly shown) [I-362]
19 | – | 0.01 to 0.05 µM | – | > 0.1 µM | – | 0.001 to 0.01 µM | C (C (10-100 fold)) | C#Cc1ccc([C@H](C)NC(=O)[C@@H]2C[C@@H](O)CN2C(=O)[C@@H](NC(=O)[C@H]2CC3(C2)C[C@H](c2cnc(N4CCC(N5CCN6c7cc(-c8ccccc8O)nnc7NC[C@H]6C5)CC4)nc2)C3)C(C)(C)C)cc1 (stereo partly shown) [I-363]
20 | > 90% | < 0.01 µM | 70 to 90% | > 0.1 µM | > 90% | 0.001 to 0.01 µM | C (C (10-100 fold)) | C#Cc1ccc([C@H](C)NC(=O)[C@@H]2C[C@@H](O)CN2C(=O)[C@@H](NC(=O)N2CC3(CC(N4CCN(c5cnc(N6CCc7[nH]c8nnc(-c9ccccc9O)cc8c7[C@H]6C)nc5)CC4)C3)C2)C(C)(C)CCO)cc1 [I-369]
21 | > 90% | 0.01 to 0.05 µM | > 90% | > 0.1 µM | 70 to 90% | 0.001 to 0.01 µM | C (C (10-100 fold)) | C#Cc1c(F)cc(CNC(=O)[C@@H]2C[C@@H](O)CN2C(=O)[C@@H](NC(=O)N2CC3(CC(N4CCC(c5cnc(N6CCc7[nH]c8nnc(-c9ccccc9O)cc8c7[C@H]6C)nc5)CC4)C3)C2)C(C)(C)C)cc1F [I-402]
